Measurements taken from patent US20250145633A1, “SUBSTITUTED FURANOPYRIMIDINE COMPOUNDS AS PDE1 INHIBITORS” (Dart NeuroScience, LLC, priority 2017, published 2025).

Target: human PDE1B enzyme (Homo sapiens (Human), UniProt Q01064)
Assay: IMAP TR-FRET PDE1B enzymatic assay
Format: biochemical
Conditions: negative log of half-maximal molar inhibitory concentration, 200 nM FAM-cAMP, values given as bins; for IC50: read-out: PDE1b (pIC50) (converted)
In short: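 Full-length GST-tagged human PDE1B (250 pg/well) in IMAP BSA buffer with 10 U/ml calmodulin and 2.5 mM CaCl2; compound pre-incubated 5 min at room temperature, then 200 nM (final) FAM-cAMP for 30 min. IMAP binding reagent/Tb added, 1 h; TR-FRET 520/490 ratio read. IC50 from sigmoidal dose-response fit.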

Row | Compound | PDE1b (pIC50) | IC50
1 | Cc1oc2ncnc(NC3(C)CC3)c2c1C(=O)N1CCC(c2ccccn2)CC1 [Example 301, 6-Methyl-N-(1-methylcyclopropyl)-5-[4-(pyridin-2-yl)piperidine-1-carbonyl]furo[2,3-d]pyrimidin-4-amine] | >8 | –
2 | Cc1oc2ncnc(NC3(C)CC3)c2c1C(=O)NC(C)c1ncc(F)cn1 (stereo not shown) [Example 302, N-[1-(5-Fluoropyrimidin-2-yl)ethyl]-6-methyl-4-[(1-methylcyclopropyl)amino]furo[2,3-d]pyrimidine-5-carboxamide] | – | 10 to 100 nM
3 | Cc1oc2ncnc(NC3(C)CC3)c2c1C(=O)N1CCc2nc(F)ncc2C1 [Example 303, 5-{2-Fluoro-5H,6H,7H,8H-pyrido[4,3-d]pyrimidine-6-carbonyl}-6-methyl-N-(1-methylcyclopropyl)furo[2,3-d]pyrimidin-4-amine] | – | 100 to 1000 nM
4 | COc1ccc(C(C)NC(=O)c2c(C)oc3ncnc(NC4(C)CC4)c23)cc1F (stereo not shown) [Example 304, N-[1-(3-Fluoro-4-methoxyphenyl)ethyl]-6-methyl-4-[(1-methylcyclopropyl)amino]furo[2,3-d]pyrimidine-5-carboxamide] | >8 | –
5 | COc1ccc([C@H](C)NC(=O)c2c(C)oc3ncnc(NC4(C)CC4)c23)c(F)c1 [Example 305, N-[(1S)-1-(2-Fluoro-4-methoxyphenyl)ethyl]-6-methyl-4-[(1-methylcyclopropyl)amino]furo[2,3-d]pyrimidine-5-carboxamide] | – | 10 to 100 nM
6 | COc1ccc([C@@H](C)NC(=O)c2c(C)oc3ncnc(NC4(C)CC4)c23)c(F)c1 [Example 306, N-[(1R)-1-(2-Fluoro-4-methoxyphenyl)ethyl]-6-methyl-4-[(1-methylcyclopropyl)amino]furo[2,3-d]pyrimidine-5-carboxamide] | >8 | –
7 | Cc1oc2ncnc(NC3(C)CC3)c2c1C(=O)N1CCc2cnc(F)nc2C1 [Example 307, 5-{2-Fluoro-5H,6H,7H,8H-pyrido[3,4-d]pyrimidine-7-carbonyl}-6-methyl-N-(1-methylcyclopropyl)furo[2,3-d]pyrimidin-4-amine] | – | 10 to 100 nM
8 | Cc1oc2ncnc(NC3(C)CC3)c2c1C(=O)N1CCN(c2nc(Cl)c(Cl)c(Cl)c2Cl)CC1 [Example 308, 6-Methyl-N-(1-methylcyclopropyl)-5-[4-(tetrachloropyridin-2-yl)piperazine-1-carbonyl]furo[2,3-d]pyrimidin-4-amine] | – | 10 to 100 nM
9 | Cc1oc2ncnc(NC3(C)CC3)c2c1C(=O)N1CCC(c2ncccn2)CC1 [Example 309, 6-Methyl-N-(1-methylcyclopropyl)-5-[4-(pyrimidin-2-yl)piperidine-1-carbonyl]furo[2,3-d]pyrimidin-4-amine] | >8 | –
10 | Cc1oc2ncnc(NC3(C)CC3)c2c1C(=O)NC1CCCc2cccnc21 (stereo not shown) [Example 310, 6-Methyl-4-[(1-methylcyclopropyl)amino]-N-(5,6,7,8-tetrahydroquinolin-8-yl)furo[2,3-d]pyrimidine-5-carboxamide] | – | 100 to 1000 nM
11 | Cc1oc2ncnc(NC3(C)CC3)c2c1C(=O)NC1(c2cnccn2)CC1 [Example 311, 6-Methyl-4-[(1-methylcyclopropyl)amino]-N-[1-(pyrazin-2-yl)cyclopropyl]furo[2,3-d]pyrimidine-5-carboxamide] | – | 10 to 100 nM
12 | Cc1oc2ncnc(NC3(C)CC3)c2c1C(=O)NCc1ccc(Cl)nc1 [Example 312, N-[(6-Chloropyridin-3-yl)methyl]-6-methyl-4-[(1-methylcyclopropyl)amino]furo[2,3-d]pyrimidine-5-carboxamide] | >8 | –
13 | Cc1oc2ncnc(NC3(C)CC3)c2c1C(=O)NCc1cnc(Cl)nc1 [Example 313, N-[(2-Chloropyrimidin-5-yl)methyl]-6-methyl-4-[(1-methylcyclopropyl)amino]furo[2,3-d]pyrimidine-5-carboxamide] | – | 10 to 100 nM
14 | Cc1oc2ncnc(NC3(C)CC3)c2c1C(=O)N1CC(F)(c2ccccc2)C1 [Example 314, 5-(3-Fluoro-3-phenylazetidine-1-carbonyl)-6-methyl-N-(1-methylcyclopropyl)furo[2,3-d]pyrimidin-4-amine] | – | 10 to 100 nM
15 | Cc1oc2ncnc(NC3(C)CC3)c2c1C(=O)NC(C)c1cnccn1 (stereo not shown) [Example 315, 6-Methyl-4-[(1-methylcyclopropyl)amino]-N-[1-(pyrazin-2-yl)ethyl]furo[2,3-d]pyrimidine-5-carboxamide] | – | 10 to 100 nM
16 | Cc1oc2ncnc(NC3(C)CC3)c2c1C(=O)NC1CCc2cccnc21 (stereo not shown) [Example 316, N-{5H,6H,7H-Cyclopenta[b]pyridin-7-yl}-6-methyl-4-[(1-methylcyclopropyl)amino]furo[2,3-d]pyrimidine-5-carboxamide] | – | 100 to 1000 nM
17 | Cc1oc2ncnc(NC3(C)CC3)c2c1C(=O)NC(C)c1ccncn1 (stereo not shown) [Example 317, 6-Methyl-4-[(1-methylcyclopropyl)amino]-N-[1-(pyrimidin-4-yl)ethyl]furo[2,3-d]pyrimidine-5-carboxamide] | – | 10 to 100 nM

Row | Compound | PDE1b (pIC50) | IC50
18 | Cc1oc2ncnc(NC3(C)CC3)c2c1C(=O)NCc1cc(Br)no1 [Example 318, N-[(3-Bromo-1,2-oxazol-5-yl)methyl]-6-methyl-4-[(1-methylcyclopropyl)amino]furo[2,3-d]pyrimidine-5-carboxamide] | – | 10 to 100 nM
19 | Cc1cc(CNC(=O)c2c(C)oc3ncnc(NC4(C)CC4)c23)on1 [Example 319, 6-Methyl-N-[(3-methyl-1,2-oxazol-5-yl)methyl]-4-[(1-methylcyclopropyl)amino]furo[2,3-d]pyrimidine-5-carboxamide] | – | 10 to 100 nM
20 | Cc1oc2ncnc(NC3(C)CC3)c2c1C(=O)N1CCC(c2nccn2C)C1 (stereo not shown) [Example 320, 6-Methyl-5-[3-(1-methyl-1H-imidazol-2-yl)pyrrolidine-1-carbonyl]-N-(1-methylcyclopropyl)furo[2,3-d]pyrimidin-4-amine] | – | 10 to 100 nM
21 | Cc1oc2ncnc(NC3(C)CC3)c2c1C(=O)N1CCC(c2cnn(C)c2)C1 (stereo not shown) [Example 321, 6-Methyl-5-[3-(1-methyl-1H-pyrazol-4-yl)pyrrolidine-1-carbonyl]-N-(1-methylcyclopropyl)furo[2,3-d]pyrimidin-4-amine] | – | 10 to 100 nM
22 | CCc1cc(CNC(=O)c2c(C)oc3ncnc(NC4(C)CC4)c23)no1 [Example 322, N-[(5-Ethyl-1,2-oxazol-3-yl)methyl]-6-methyl-4-[(1-methylcyclopropyl)amino]furo[2,3-d]pyrimidine-5-carboxamide] | >8 | –
23 | Cc1oc2ncnc(NC3(C)CC3)c2c1C(=O)NCc1cc(C2CC2)on1 [Example 323, N-[(5-Cyclopropyl-1,2-oxazol-3-yl)methyl]-6-methyl-4-[(1-methylcyclopropyl)amino]furo[2,3-d]pyrimidine-5-carboxamide] | >8 | –
24 | Cc1oc2ncnc(NC3(C)CC3)c2c1C(=O)NCc1cc(C(C)C)on1 [Example 324, 6-Methyl-4-[(1-methylcyclopropyl)amino]-N-{[5-(propan-2-yl)-1,2-oxazol-3-yl]methyl}furo[2,3-d]pyrimidine-5-carboxamide] | – | 10 to 100 nM
25 | Cc1oc2ncnc(NC3(C)CC3)c2c1C(=O)NCc1cc(-c2ccc(F)cc2)on1 [Example 325, N-{[5-(4-Fluorophenyl)-1,2-oxazol-3-yl]methyl}-6-methyl-4-[(1-methylcyclopropyl)amino]furo[2,3-d]pyrimidine-5-carboxamide] | – | 10 to 100 nM
26 | COc1ccc(-c2cc(CNC(=O)c3c(C)oc4ncnc(NC5(C)CC5)c34)no2)cc1 [Example 326, N-{[5-(4-Methoxyphenyl)-1,2-oxazol-3-yl]methyl}-6-methyl-4-[(1-methylcyclopropyl)amino]furo[2,3-d]pyrimidine-5-carboxamide] | – | 10 to 100 nM
27 | COc1cnc(N2CCN(C(=O)c3c(C)oc4ncnc(NC5(C)CC5)c34)CC2)nc1 [Example 327, 5-[4-(5-Methoxypyrimidin-2-yl)piperazine-1-carbonyl]-6-methyl-N-(1-methylcyclopropyl)furo[2,3-d]pyrimidin-4-amine] | – | 10 to 100 nM
28 | Cc1oc2ncnc(NC3(C)CC3)c2c1C(=O)NCc1cc(C(N)=O)on1 [Example 328, 3-[({6-Methyl-4-[(1-methylcyclopropyl)amino]furo[2,3-d]pyrimidin-5-yl}formamido)methyl]-1,2-oxazole-5-carboxamide] | – | 10 to 100 nM
29 | Cc1oc2ncnc(NC3(C)CC3)c2c1C(=O)N1CCc2c(O)cccc2C1 [Example 329, 2-{6-Methyl-4-[(1-methylcyclopropyl)amino]furo[2,3-d]pyrimidine-5-carbonyl}-1,2,3,4-tetrahydroisoquinolin-5-ol] | >8 | –
30 | Cc1oc2ncnc(NC3(C)CC3)c2c1C(=O)N1CCc2cc(O)ccc2C1 [Example 330, 2-{6-Methyl-4-[(1-methylcyclopropyl)amino]furo[2,3-d]pyrimidine-5-carbonyl}-1,2,3,4-tetrahydroisoquinolin-6-ol] | – | 10 to 100 nM
31 | Cc1oc2ncnc(NC3(C)CC3)c2c1C(=O)N1CCc2cccc(O)c2C1 [Example 331, 2-{6-Methyl-4-[(1-methylcyclopropyl)amino]furo[2,3-d]pyrimidine-5-carbonyl}-1,2,3,4-tetrahydroisoquinolin-8-ol] | – | 10 to 100 nM
32 | Cc1oc2ncnc(NC3(C)CC3)c2c1C(=O)N1CCc2ccc(O)cc2C1 [Example 332, 2-{6-Methyl-4-[(1-methylcyclopropyl)amino]furo[2,3-d]pyrimidine-5-carbonyl}-1,2,3,4-tetrahydroisoquinolin-7-ol] | – | 10 to 100 nM
33 | Cc1oc2ncnc(NC3(C)CC3)c2c1C(=O)N1CCc2ncc(O)cc2C1 [Example 333, 6-{6-Methyl-4-[(1-methylcyclopropyl)amino]furo[2,3-d]pyrimidine-5-carbonyl}-5,6,7,8-tetrahydro-1,6-naphthyridin-3-ol] | – | 100 to 1000 nM
34 | Cc1oc2ncnc(NC3(C)CC3)c2c1C(=O)N1CCC(c2ncc(F)cc2Cl)CC1 [Example 334, 5-[4-(3-Chloro-5-fluoropyridin-2-yl)piperidine-1-carbonyl]-6-methyl-N-(1-methylcyclopropyl)furo[2,3-d]pyrimidin-4-amine] | >8 | –
